The values that follow come from patent EP4800012A1, “COMPOUND ACTING AS PARP7 INHIBITOR” (Dovetree Medicines Unus, Inc., priority 2023, dated 2025).

The target in assay [1] is T1, PARP7 (Homo sapiens, UniProt Q7Z3E1).
T1 construct: purchased BPS 80527
T1 sequence (Q7Z3E1 1-657): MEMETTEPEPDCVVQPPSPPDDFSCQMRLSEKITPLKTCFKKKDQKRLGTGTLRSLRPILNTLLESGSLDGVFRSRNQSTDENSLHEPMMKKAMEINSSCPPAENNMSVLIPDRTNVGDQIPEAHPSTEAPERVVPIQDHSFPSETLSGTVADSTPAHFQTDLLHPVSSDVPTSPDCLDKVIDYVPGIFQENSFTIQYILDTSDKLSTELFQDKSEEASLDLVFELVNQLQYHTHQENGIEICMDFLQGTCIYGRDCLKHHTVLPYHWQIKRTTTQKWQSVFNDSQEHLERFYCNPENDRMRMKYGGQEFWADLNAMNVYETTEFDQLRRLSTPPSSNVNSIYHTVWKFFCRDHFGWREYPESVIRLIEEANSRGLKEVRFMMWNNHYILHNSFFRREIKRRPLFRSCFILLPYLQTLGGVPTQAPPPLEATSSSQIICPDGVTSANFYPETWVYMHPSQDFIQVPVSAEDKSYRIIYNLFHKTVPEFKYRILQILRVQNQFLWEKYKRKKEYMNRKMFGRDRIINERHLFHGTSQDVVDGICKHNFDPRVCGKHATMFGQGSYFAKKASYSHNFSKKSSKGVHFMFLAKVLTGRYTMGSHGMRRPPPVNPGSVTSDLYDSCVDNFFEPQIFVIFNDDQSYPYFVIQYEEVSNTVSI
Put plainly: Inhibition of the compound on PARP7 protein activity (ADP-ribosylation, chemiluminescence). It is filed as biochemical. Conditions: Histone H1 coated plate, Biotin-Labeled NAD+, 2 h at room temperature, chemiluminescence; read-out: PARP7 activity inhibition IC50.

Assay [2] concerns the target T1, PARP7. Put plainly: PARP7 in vitro enzyme activity inhibition (chemiluminescence assay, selectivity test). It is filed as biochemical. The note with it: 6.25 nM of PARP7 solution, method of test example 1; read-out: PARP7 activity inhibition IC50. Here is the method:
(§1) Following the method in test example 1, the IC50 value of the inhibition of each compound on PARP7 activity were detected and obtained. Reference was made to the method in test example 1, except that the 6.25 nM of PARP7 solution in the ribosylation reaction step was replaced with a 5 nM of PARP1 solution or a 5 nM of PARP2. Similar to the 6.25 nM of PARP7 solution, the 5 nM of PARP1 solution and 5 nM of PARP2 solution were also formulated and obtained by using 1× Assay buffer.

The subject of the next assay is NCI-H1373 cells. Put plainly: Inhibition on NCI-H1373 cell proliferation (Cell-Titer-Glo). The class given is cell-based. Conditions: Homo sapiens, 144 h; NCI-H1373 cells, incubation for 6 days, Cell-Titer-Glo; read-out: NCI-H1373 cell proliferation inhibition IC50.
For a further assay, the target named is PARP1 (Homo sapiens, UniProt P09874). In words: PARP1 in vitro enzyme activity inhibition (chemiluminescence assay). The class given is biochemical. Conditions: 5 nM of PARP1 solution, method of test example 1; read-out: PARP1 activity inhibition IC50. Here is the method:
as §1

The target in assay [3] is T1, PARP7. In words: PARP7 TR-FRET binding inhibition (displacement of probe RBN011147). The note with it: TR-FRET, Biotin-labeled probe RBN011147; read-out: PARP7 binding inhibition IC50. Here is the method:
The ability of the compound to substitute the probe RBN011147 (Wigle et al., 2020, Cell Chemical Biology 27, 877-887) was tested by a TR-FRET method, and IC50 was calculated to evaluate the binding ability of the compound to PARP7. […]

In a further assay the target is PARP2 (Homo sapiens, UniProt Q9UGN5). Put plainly: PARP2 in vitro enzyme activity inhibition (chemiluminescence assay). It is filed as biochemical. Conditions: 5 nM of PARP2, method of test example 1; read-out: PARP2 activity inhibition IC50. As to the method: as §1
PARP2, sequence (Q9UGN5 whole entry, species assumed): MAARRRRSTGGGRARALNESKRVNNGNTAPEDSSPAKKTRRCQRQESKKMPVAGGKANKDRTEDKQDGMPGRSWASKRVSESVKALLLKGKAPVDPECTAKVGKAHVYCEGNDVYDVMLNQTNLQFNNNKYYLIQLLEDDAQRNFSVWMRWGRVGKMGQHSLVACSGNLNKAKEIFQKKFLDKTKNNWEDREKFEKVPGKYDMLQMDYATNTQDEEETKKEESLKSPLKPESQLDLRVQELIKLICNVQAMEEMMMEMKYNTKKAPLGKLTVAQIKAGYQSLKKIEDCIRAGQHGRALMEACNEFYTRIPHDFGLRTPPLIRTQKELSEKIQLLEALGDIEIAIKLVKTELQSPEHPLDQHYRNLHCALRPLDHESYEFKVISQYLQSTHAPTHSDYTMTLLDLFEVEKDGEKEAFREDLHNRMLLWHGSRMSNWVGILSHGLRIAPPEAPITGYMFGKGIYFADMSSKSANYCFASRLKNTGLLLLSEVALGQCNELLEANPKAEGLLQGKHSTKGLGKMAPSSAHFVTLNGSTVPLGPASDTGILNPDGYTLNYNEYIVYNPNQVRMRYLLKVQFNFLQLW

Structures are written as SMILES. Some results are limits rather than exact numbers.

PARP1, sequence (P09874 whole entry, species assumed): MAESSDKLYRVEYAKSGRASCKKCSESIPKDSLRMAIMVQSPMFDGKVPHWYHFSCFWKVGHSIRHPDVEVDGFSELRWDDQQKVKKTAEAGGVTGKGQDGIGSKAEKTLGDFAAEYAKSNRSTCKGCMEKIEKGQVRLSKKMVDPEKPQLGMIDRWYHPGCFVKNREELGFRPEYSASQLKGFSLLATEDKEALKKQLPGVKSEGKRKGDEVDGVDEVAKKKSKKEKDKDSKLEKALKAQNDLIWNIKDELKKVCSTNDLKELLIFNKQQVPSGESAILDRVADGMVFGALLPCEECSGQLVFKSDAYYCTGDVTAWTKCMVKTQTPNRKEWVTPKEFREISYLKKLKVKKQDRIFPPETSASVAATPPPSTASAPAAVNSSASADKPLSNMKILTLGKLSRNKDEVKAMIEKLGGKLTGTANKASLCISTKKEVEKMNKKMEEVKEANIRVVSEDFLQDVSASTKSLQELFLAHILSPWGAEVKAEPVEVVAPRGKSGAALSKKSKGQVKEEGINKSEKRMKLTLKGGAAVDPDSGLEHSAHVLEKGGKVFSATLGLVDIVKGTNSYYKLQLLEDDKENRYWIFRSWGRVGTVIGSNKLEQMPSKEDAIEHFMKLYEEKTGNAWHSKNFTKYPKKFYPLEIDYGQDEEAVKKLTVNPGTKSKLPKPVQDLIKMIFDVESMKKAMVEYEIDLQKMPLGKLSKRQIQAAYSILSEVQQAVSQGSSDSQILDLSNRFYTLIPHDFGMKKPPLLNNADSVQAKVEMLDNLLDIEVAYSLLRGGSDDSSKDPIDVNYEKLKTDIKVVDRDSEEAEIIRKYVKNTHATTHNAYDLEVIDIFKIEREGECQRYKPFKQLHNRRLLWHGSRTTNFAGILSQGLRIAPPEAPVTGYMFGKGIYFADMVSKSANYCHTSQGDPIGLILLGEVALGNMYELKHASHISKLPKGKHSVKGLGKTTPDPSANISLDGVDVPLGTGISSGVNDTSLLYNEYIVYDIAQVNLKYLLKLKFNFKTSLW

Regarding `CC1(C)CN(C(=O)C(CCCNC(=O)c2cnc(-c3ncc(C(F)(F)F)cn3)cn2)Nc2cn[nH]c(=O)c2C(F)(F)F)C1` (stereo not drawn) [Example 174], the IC50 was 3 to 10 nM on PARP7 [1]; 3 to 10 nM at PARP7 [2]; over 3000 nM in the assay on NCI-H1373 cells; 30 to 100 nM on PARP1; 10 to 30 nM at PARP7 [3]; 3 to 10 nM on PARP2.

For `CN(C(=O)[C@@H](CCCNC(=O)c1ccc(-c2ncc(C(F)(F)F)s2)cc1)Nc1cn[nH]c(=O)c1C(F)(F)F)C1CC1` [Example 223], the IC50 was 3 to 10 nM on PARP7 [1]; 3 to 10 nM at PARP7 [2]; under 300 nM in the assay on NCI-H1373 cells; 3 to 10 nM on PARP1; under 10 nM at PARP7 [3]; 30 to 100 nM at PARP2.

`O=C(NCCC[C@@H](Nc1cn[nH]c(=O)c1C(F)(F)F)C(=O)N1CC[C@@H](F)C1)c1ccc(-c2ncc(C(F)(F)F)s2)cc1` [Example 222]: the IC50 at PARP7 [1] was under 3 nM; at PARP7 [2], under 3 nM; with NCI-H1373 cells, under 300 nM; on PARP1, 10 to 30 nM; on PARP7 [3], under 10 nM; at PARP2, under 3 nM.

For the compound `CC1CN(C(=O)[C@@H](CCCNC(=O)c2ccc(-c3ncc(C(F)(F)F)s3)cc2)Nc2cn[nH]c(=O)c2C(F)(F)F)C1` [Example 233], the IC50 on PARP7 [1] was under 3 nM; on PARP7 [2], under 3 nM; in the assay with NCI-H1373 cells, 300 to 1000 nM; on PARP1 it was 3 to 10 nM; on PARP7 [3], under 10 nM; on PARP2 it was under 3 nM.

Turning to `O=C(NCCCC(Nc1cn[nH]c(=O)c1C(F)(F)F)C(=O)N1CCOCC1)c1ccc(-c2ncc(C(F)(F)F)s2)cc1` (stereo not drawn) [Example 88], the IC50 is under 3 nM at PARP7 [1]; under 3 nM on PARP7 [2]; 300 to 1000 nM in the assay on NCI-H1373 cells; 30 to 100 nM at PARP1; under 10 nM at PARP7 [3]; 3 to 10 nM on PARP2.

As to `O=C(NCCc1n[nH]c(=O)c(C(F)(F)F)c1N1CC2(CCC2)C1)c1cnc(-c2ncc(C(F)(F)F)cn2)cn1` [Example 166], the IC50 on PARP7 [1] is 3 to 10 nM; on PARP7 [2] it was 3 to 10 nM; with NCI-H1373 cells, over 3000 nM; at PARP1 it was over 100 nM; at PARP7 [3], over 100 nM; on PARP2, over 100 nM.

Consider `CNC(=O)[C@@H](CCCNC(=O)c1ccc(-c2ncc(C(F)(F)F)s2)cc1)Nc1cn[nH]c(=O)c1C(F)(F)F` [Example 229], for which the IC50 was under 3 nM on PARP7 [1]; under 3 nM at PARP7 [2]; under 300 nM with NCI-H1373 cells; 30 to 100 nM on PARP1; 10 to 30 nM at PARP7 [3]; 10 to 30 nM on PARP2.

As to `CN(C(=O)[C@@H](CCCNC(=O)c1ccc(-c2ncc(C(F)(F)F)s2)cc1)Nc1cn[nH]c(=O)c1C(F)(F)F)C1CCC1` [Example 230], the IC50 on PARP7 [1] was 3 to 10 nM; on PARP7 [2], 3 to 10 nM; in the assay with NCI-H1373 cells, under 300 nM; on PARP1, 30 to 100 nM; on PARP7 [3], 30 to 100 nM; on PARP2, 3 to 10 nM.

Turning to `O=C(NCCC[C@@H](Nc1cn[nH]c(=O)c1C(F)(F)F)C(=O)NC1CCC1)c1ccc(-c2ncc(C(F)(F)F)s2)cc1` [Example 228], the IC50 on PARP7 [1] is 3 to 10 nM; at PARP7 [2], 3 to 10 nM; in the assay with NCI-H1373 cells it was under 300 nM; at PARP1 it was over 100 nM; on PARP7 [3], under 10 nM; on PARP2, 3 to 10 nM.

As for `O=C(NCCCC(Nc1cn[nH]c(=O)c1C(F)(F)F)C(=O)N1CC2(CCC2)C1)c1cnc(-c2ncc(C(F)(F)F)cn2)cn1` (stereo not drawn) [Example 87], the IC50 on PARP7 [1] was under 3 nM; at PARP7 [2], under 3 nM; with NCI-H1373 cells, under 300 nM; on PARP1, 30 to 100 nM; at PARP7 [3], 10 to 30 nM; on PARP2 it was 10 to 30 nM.

`O=C(NCCCC(Nc1cn[nH]c(=O)c1C(F)(F)F)C(=O)N1CCCC1)c1ccc(-c2ncc(C(F)(F)F)s2)cc1` (stereo not drawn) [Example 86]: the IC50 at PARP7 [1] is under 3 nM; on PARP7 [2], under 3 nM; with NCI-H1373 cells, under 300 nM; on PARP1 it was 10 to 30 nM; at PARP7 [3] it was under 10 nM; on PARP2, 3 to 10 nM.

Turning to `CC1(C#N)CN(C(=O)[C@@H](CCCNC(=O)c2ccc(-c3ncc(C(F)(F)F)s3)cc2)Nc2cn[nH]c(=O)c2C(F)(F)F)C1` [Example 247], the IC50 is 3 to 10 nM on PARP7 [1]; 3 to 10 nM at PARP7 [2]; over 3000 nM in the assay with NCI-H1373 cells; 10 to 30 nM at PARP1; 10 to 30 nM at PARP7 [3]; 30 to 100 nM on PARP2.

Turning to `O=C(NCCC[C@@H](Nc1cn[nH]c(=O)c1C(F)(F)F)C(=O)Nc1ccccn1)c1ccc(-c2ncc(C(F)(F)F)s2)cc1` [Example 244], the IC50 at PARP7 [1] was under 3 nM; at PARP7 [2], under 3 nM; in the assay with NCI-H1373 cells it was over 3000 nM; at PARP1 it was 3 to 10 nM; at PARP7 [3] it was 30 to 100 nM; on PARP2 it was 30 to 100 nM.

As to `CC1(C)CN(C(=O)C(CCCNC(=O)c2ccc(-c3ncc(C(F)(F)F)s3)cc2)Nc2cn[nH]c(=O)c2C(F)(F)F)C1` (stereo not drawn) [Example 85], the IC50 on PARP7 [1] was under 3 nM; on PARP7 [2] it was under 3 nM; in the assay on NCI-H1373 cells, 300 to 1000 nM; on PARP1 it was 30 to 100 nM; on PARP7 [3], under 10 nM; on PARP2, 3 to 10 nM.
